Test results: patent publication US4996358A, “Hydroxylamine bearing amino acid derivatives as collagenase inhibitors” (Hoffmann-La Roche Inc., priority 1986, dated 1991)

The compounds below were run against T1, human synovial collagenase (Homo sapiens, UniProt P03956) (assay: In vitro inhibition of collagenase from human synovial fibroblast culture (synthetic peptide substrate cleavage)). Conditions: trypsin-activated procollagenase; 0.5 mmol N-acetyl-L-prolyl-L-leucylglycyl-L-leucyl-L-leucylglycyl ester substrate; borate buffer pH 7.5, CaCl2; 37° C., 1 hour; read-out: Inhibitory activity against human synovial collagenase IC50.
T1 construct: endogenous in cells; host or cells: human synovial fibroblast culture; procollagenase partially purified from the culture medium
T1 sequence (P03956 100-469): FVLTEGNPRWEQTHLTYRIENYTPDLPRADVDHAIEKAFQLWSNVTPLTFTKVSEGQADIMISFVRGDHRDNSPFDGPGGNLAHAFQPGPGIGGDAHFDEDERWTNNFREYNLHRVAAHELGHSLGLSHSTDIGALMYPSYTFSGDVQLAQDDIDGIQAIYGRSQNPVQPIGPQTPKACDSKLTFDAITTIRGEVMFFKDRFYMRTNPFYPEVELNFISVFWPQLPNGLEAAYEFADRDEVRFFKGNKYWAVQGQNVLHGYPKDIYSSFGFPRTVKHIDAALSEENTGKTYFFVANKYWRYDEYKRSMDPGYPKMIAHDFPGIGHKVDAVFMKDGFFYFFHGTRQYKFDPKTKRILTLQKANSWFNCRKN
Assay type: biochemical
Protocol: Procollagenase was partially purified from the cell culture medium by negative adsorption on DEAE Sephadex A-50 at pH 8.1 and activated by treatment with tryspin. The inhibitory activity of the present hydroxylamine derivatives was determined using a synthetic substrate, N-acetyl-L-prolyl-L-leucylglycyl-L-leucyl-L-leucylglycyl […], for this collagenase. The enzyme was added to a solution of 0.5 mmol of substrate in 50 mmol of borate buffer (pH 7.5) containing 1 mmol of calcium chloride and a known concentration of peptide derivative. The resulting solution was incubated at 37° C. for 1 hour. Enzyme digestion of the substrate was terminated by the addition of an equal volume of 2% (weight/volume) sodium hydrogen carbonate solution in 50% aqueous methanol containing 0.1% (weight/volume) of picrylsulfonic acid. The solution obtained was incubated at 37° C. for an additional 1 hour in order to allow reaction between the L-leucyl-L-leucyl-glycyl ethyl ester generated by the cleavage of the substrate and the picrylsulfonic acid to give trinitrophenyl-L-leucyl-L-leucylglycyl ethyl ester. The reaction was terminated and stabilized by acidification with IN hydrochloric acid. The concentration of trinitrophenyl-L-leucyl-L-leucylglycyl ethyl ester was determined by spectrophotometry at 335 nm. The IC50 is that concentration of hydroxylamine derivative of formula I of the invention in the enzyme digestion which reduces substrate cleavage to 50% of that achieved by the enzyme alone.

SMILES | IC50 [nM]
CCOC(=O)CNC(=O)[C@H](CC(C)C)NC(=O)C(CC(C)C)CN(O)C=O (mixture of isomers) [C, [N-formyl-N-hydroxy 2(RS)-isobutyl-3-aminopropionyl]-L-leucylglycine ethyl ester] | 300
CCOC(=O)CNC(=O)[C@H](CC(C)C)NC(=O)[C@@H](CC(=O)NO)CC(C)C [A, [4-(N-Hydroxyamino) 2(R)-isobutylsuccinyl]-L-leucylglycine ethyl ester] | 25
CCOC(=O)[C@H](C)NC(=O)[C@H](CC(C)C)NC(=O)[C@@H](CC(=O)NO)CC(C)C [B, [4-(N-hydroxyamino) 2(R)-isobutylsuccinyl]-L-leucyl-L-alanine ethyl ester] | 8.5
CCOC(=O)[C@H](C)NC(=O)[C@H](CCCCNC(=O)CN)NC(=O)[C@@H](CC(=O)NO)CC(C)C [D, N^α -[4-(N-hydroxyamino) 2(R)-isobutylsuccinyl]-N^ε -glycyl-L-lysyl-L-alanine ethyl ester] | 30
CC(C)C[C@H](CC(=O)NO)C(=O)NC1CCCCCCCCCCNC1=O (stereo partly drawn) [E, [4-(N-hydroxyamino) 2(R)-isobutylsuccinyl]-3(RS)-aminolaurolactam] | 38
CCOC(=O)CNC(=O)[C@H](CC(C)C)NC(=O)[C@H](CC(C)C)[C@H](CCCCN1C(=O)c2ccccc2C1=O)C(=O)NO [F, [4-(N-hydroxyamino) 3(S)-phthaloylaminobutyl-2(R)-isobutylsuccinyl]-L-leucylglycine ethyl ester] | 12
